Source: ChEMBL document CHEMBL5604064, “ASAP - DENV-1 NS2B-NS3 protease fluorescence dose response” (2024)

The compounds below were run against T1, NS3 protease (dengue virus type 1, UniProt A0A0K0TQ28) (assay: Functional biochemical assay to identify treatments for viral infectious disease that targets Dengue virus type 1 NS2B-NS3 protease. Utilizing a direct enzyme activity measurement method, reading the fluorescence intensity is used to characterize the relative potency of inhibitors as IC50.).
T1 sequence (A0A0K0TQ28 whole entry): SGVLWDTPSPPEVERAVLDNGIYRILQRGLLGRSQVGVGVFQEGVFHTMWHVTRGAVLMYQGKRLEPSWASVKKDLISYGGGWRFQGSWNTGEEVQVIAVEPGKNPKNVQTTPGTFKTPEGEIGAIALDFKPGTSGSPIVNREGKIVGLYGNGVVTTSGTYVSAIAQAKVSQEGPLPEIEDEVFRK
Set-up: species or system Nauru/West Pac/1974

Compound | IC50 [µM]
N#Cc1ccc(-c2nc3c(C(=O)Nc4ccc5c(c4)CNC5)cc(F)cc3[nH]2)cc1 | 1.68
COc1cccc(-c2nc3c(C(=O)Nc4ccc5c(c4)CNC5)cc(F)cc3[nH]2)c1 | 5.41
O=C(Nc1ccc2c(c1)CNC2)c1cc(F)cc2[nH]c(-c3cccc(F)c3)nc12 | 2.69
Cc1cccc(-c2nc3c(C(=O)Nc4ccc5c(c4)CNC5)cc(F)cc3[nH]2)c1 | 5.92
NCc1ccc(-c2csc3cc(C(=O)Nc4ccc5c(c4)CNC5)ccc23)cc1 | 31.7
NCc1csc2cc(C(=O)Nc3ccc4c(c3)CNC4)ccc12 | 9.99
O=C(Nc1ccc2c(c1)CNC2)c1cccc2c(C3CNC3)n[nH]c12 | 92.9
